The source of these data is BindingDB's records for patent US20240000767 (Bayer Aktiengesellschaft, 2024).

The target in this assay is T1, Alpha-2C adrenergic receptor (Homo sapiens, UniProt P18825).
T1 sequence (P18825 whole entry): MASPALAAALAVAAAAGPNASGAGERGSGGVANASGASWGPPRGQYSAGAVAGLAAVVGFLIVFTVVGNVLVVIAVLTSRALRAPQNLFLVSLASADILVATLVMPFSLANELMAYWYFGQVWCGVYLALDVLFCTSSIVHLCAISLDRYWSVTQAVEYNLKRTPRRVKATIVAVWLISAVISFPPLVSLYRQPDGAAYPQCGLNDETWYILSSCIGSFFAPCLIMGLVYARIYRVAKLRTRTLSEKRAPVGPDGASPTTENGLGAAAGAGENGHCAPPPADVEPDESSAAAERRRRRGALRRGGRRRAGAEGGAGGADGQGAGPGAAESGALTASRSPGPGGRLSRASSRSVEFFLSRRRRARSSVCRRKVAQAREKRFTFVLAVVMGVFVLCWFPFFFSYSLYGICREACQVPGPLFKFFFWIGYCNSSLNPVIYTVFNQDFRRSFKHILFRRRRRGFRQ
The assay can be described thus: In Vitro Radioligand Binding Assay. The method, then:
In Vitro Radioligand Binding Studies for Determination of the Dissociation Constants K1 at the Human Adrenoreceptor ADRA2C (Eurofins Panlabs Discovery Services, Taiwan, Ltd)A competition assay based on [3H] rauwolscine as radioliganden was used to determine the binding affinity of the test substances at the human ADRA2C receptor.To configure the competition assay, the equilibrium dissociation constant Kd of the radioligand [3H] rauwolscine was determined in a saturation experiment. To this end, homogenates of CHO-K1 cells recombinantly expressing the human ADRA2C receptor were incubated with increasing concentrations of the radiotracers for 1 h at 4° C. in binding buffer (50 mM Tris-HCl, 1 mM EDTA, pH 7.4). Unspecific binding was determined by addition of an excess of the not radioactively labelled ligand prazosin (10 μM). The radioactivity was determined in a scintiation counter.The competition experiments were carried out in the presence of 0.5 nM [3H] rauwolscine and increasing concentrations of the test substances to be characterized under the conditions described above.

Each structure is given as a SMILES string.

For the molecule `C[C@@H]1CCCN(C2CCN(c3ncc(C(=O)NCc4cc(C(F)(F)F)ccn4)s3)CC2)C1` [US20240000767, Example 18], the IC50 (commonly the concentration that inhibits the measured activity by half) is 6.8 µM.

With `C[C@@H]1CCCN(C2CCN(c3nc(Br)c(C(=O)NCc4ncc(F)cc4F)s3)CC2)C1` [US20240000767, Example 119], the IC50 came out at 0.03 µM.
